Measured values taken from patent US4650760A, “Modified alkaline phosphatase” (Research Corporation, priority 1985, dated 1987).

Tests used:
[1] = target: E. coli alkaline phosphatase, trypsin-modified (tm-AP) (Escherichia coli, UniProt P00634); conditions: 2.6×10^-6 M enzyme, 0.5 M NaCl, 0.025 M Tris, pH 7.5
Method: (§1) Enzyme was incubated with EDTA; conditions- 2.6×10^-6 M enzyme, -0.015 M EDTA, 0.5 M NaCl, 5×10^-4 M Mg(II), 5×10^-5 M Zn(II), 5×10^-4 M spermidine, 0.025 M Tris, pH 7.5. Aliquots were withdrawn at the indicated time points and enzymatic activity in the standard phosphohydrolase assay (Appleburg, M. L. and J. E. Coleman J. Biol. Chem. 244: 308 (1969)) was determined. Data are shown as the per cent of the initial activity remaining at the times indicated. […] Enzyme was harvested and activity determined.
(§2) Following inactivation, samples of th enzymes were dialyzed against buffer solutions containing Zn(II) and Mg(II) ions (arrow in FIG. 14).

[2] = target: native bacterial alkaline phosphatase (BAP) (Escherichia coli, UniProt P00634); conditions: 2.6×10^-6 M enzyme, 0.5 M NaCl, 0.025 M Tris, pH 7.5
Method: as §1, §2

[3] = target: alkaline phosphatase isolated from leukocytes (Homo sapiens, UniProt P05186); conditions: 0.02M EDTA; cited from earlier work
Sequence of alkaline phosphatase isolated from leukocytes (P05186 18-502 limits assumed): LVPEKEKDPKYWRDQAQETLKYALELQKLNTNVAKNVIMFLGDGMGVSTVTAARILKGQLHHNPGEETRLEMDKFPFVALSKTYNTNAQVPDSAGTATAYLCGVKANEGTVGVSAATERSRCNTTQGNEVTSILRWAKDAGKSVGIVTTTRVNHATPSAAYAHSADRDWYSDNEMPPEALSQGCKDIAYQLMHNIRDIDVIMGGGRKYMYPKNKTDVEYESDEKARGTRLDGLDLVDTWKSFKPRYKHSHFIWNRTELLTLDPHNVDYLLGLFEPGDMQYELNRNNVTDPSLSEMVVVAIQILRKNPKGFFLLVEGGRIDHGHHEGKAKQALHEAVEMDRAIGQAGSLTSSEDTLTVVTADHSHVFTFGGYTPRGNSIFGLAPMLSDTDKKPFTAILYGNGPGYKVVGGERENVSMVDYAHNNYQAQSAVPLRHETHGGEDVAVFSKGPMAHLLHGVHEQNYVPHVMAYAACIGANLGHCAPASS

Sequence of native bacterial alkaline phosphatase (BAP) (P00634 22-471): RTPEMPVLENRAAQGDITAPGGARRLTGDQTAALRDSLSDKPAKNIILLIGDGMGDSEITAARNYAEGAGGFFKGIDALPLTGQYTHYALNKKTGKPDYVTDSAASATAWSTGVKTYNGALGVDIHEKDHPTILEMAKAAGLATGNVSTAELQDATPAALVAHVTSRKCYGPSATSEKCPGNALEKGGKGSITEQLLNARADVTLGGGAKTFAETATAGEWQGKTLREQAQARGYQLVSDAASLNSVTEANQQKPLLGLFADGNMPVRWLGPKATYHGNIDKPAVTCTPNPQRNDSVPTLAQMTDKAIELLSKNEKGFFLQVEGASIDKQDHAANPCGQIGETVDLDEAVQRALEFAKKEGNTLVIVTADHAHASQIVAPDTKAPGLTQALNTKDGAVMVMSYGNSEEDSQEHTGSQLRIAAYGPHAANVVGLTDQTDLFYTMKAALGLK
Sequence of E. coli alkaline phosphatase, trypsin-modified (tm-AP) (P00634 33-471): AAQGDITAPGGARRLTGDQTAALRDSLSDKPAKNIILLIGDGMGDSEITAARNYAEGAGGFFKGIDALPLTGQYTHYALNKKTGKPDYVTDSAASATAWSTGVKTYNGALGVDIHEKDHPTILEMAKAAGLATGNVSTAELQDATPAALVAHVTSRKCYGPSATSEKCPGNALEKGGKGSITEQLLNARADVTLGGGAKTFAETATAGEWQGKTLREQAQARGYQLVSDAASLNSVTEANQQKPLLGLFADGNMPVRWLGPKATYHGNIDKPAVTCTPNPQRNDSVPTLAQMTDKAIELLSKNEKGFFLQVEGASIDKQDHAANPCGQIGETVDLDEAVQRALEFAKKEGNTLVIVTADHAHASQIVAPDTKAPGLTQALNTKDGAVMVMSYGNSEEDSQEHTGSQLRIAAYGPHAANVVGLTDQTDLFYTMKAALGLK

Question: For `O=C(O)CN(CCN(CC(=O)O)CC(=O)O)CC(=O)O` [EDTA, ethylene diamine tetraacetic acid], which “time until activity is reduced to zero on exposure to EDTA” value [1] is on record?
Answer: 1.5 h

Question: What about the “time required for inactivation on exposure to EDTA” value [2] of the same compound?
Answer: 3.5 h

Question: What about the “inhibition after incubation with EDTA” value [3] of the same compound?
Answer: 50%
